Results from paper PMC7023466, “Novel N,N′-Disubstituted Acylselenoureas as Potential Antioxidant and Cytotoxic Agents” (Antioxidants, 2020).
Like-named read-outs stand apart in the source and are kept apart here.

Legend:
[1] = DPPH radical scavenging assay; settings: for DPPH radical scavenging: 0.003 mg/mL
Experimental: DPPH assay was performed as described by Svinyarov. Briefly, each compound was initially dissolved in absolute methanol at a concentration of 1 mg/mL, and serial dilutions were prepared. Ascorbic acid (Asc), a well-known and potent antioxidant, was used as a positive control. A methanolic solution (100 µM) of DPPH^• was prepared daily and […]. The absorbance measurements of this solution were needed in order to check the stability of the radical through the time of analysis. Then, 100 µL of DPPH in methanol were added to 100 µL of the compounds’ solutions, and the decolorization of the purple radical to the yellow reduced form was followed at 517 nm. Determinations were recorded at several time intervals. All of the measurements were carried out in triplicate. The results were expressed as the percentage of the radical scavenged, calculated using the following formula:(1) % DPPH radical scavenging = Acontrol−Asample/Acontrol × 100 where Acontrol refers to the absorbance of the negative control and Asample refers to the absorbance of the tested compounds. The results are expressed as percentage of DPPH radical scavenging ± standard deviation (SD).

HT-29 cells = experiment: MTT cell viability assay, HT-29; assay type: cell-based; settings: Homo sapiens, 48 h, read-out: Growth (%) HT-29
Experimental: (§1) The cell viability assay of each compound was carried out using the MTT assay. Each compound was dissolved in dimethyl sulfoxide (DMSO) at a concentration of 0.01 M. Serial dilutions were prepared with a non-supplemented culture medium. The effect of each compound on the cell viability was determined at two different concentrations (10 and 50 µM) in MCF-7, HTB-54, and HT-29 cells. In addition, the selected compounds were tested at six different concentrations between 0.1–100 µM in MCF-7, T47D, H1299, HTB-54, and 184B5 cells.
(§2) Briefly, 1 × 10^4 tumor cells/well or 2 × 10^4 non-tumorigenic cells/well were grown in 96-well plates for 12 h. Then, these cells were incubated with either DMSO (control) or a different concentration of each of the tested compounds for 48 h. Three hours before the termination point, 20 µL of MTT were added to measure the cellular viability. The resultant formazan crystals were dissolved in 50 µL of DMSO, and the absorbance was measured at 570 and 630 nm. The results are expressed as IC50, the half maximal inhibitory concentration. This value was calculated using OriginPro 8.5.1. software (OriginLab, Northampton, MA, USA) by nonlinear curve fitting. Furthermore, the selectivity index (SI) was calculated as the ratio of the IC50 values determined for the non-malignant and the tumor cells (IC50 (184B5)/IC50 (MCF-7). The data were obtained from at least three independent experiments performed in quadruplicates.

HTB-54 cells = experiment: MTT cell viability assay, HTB-54; assay type: cell-based; settings: Homo sapiens, 48 h; for activity at 10 µM / activity at 50 µM: read-out: Growth (%) HTB-54
Experimental: as §1, §2

MCF-7 cells = experiment: MTT cell viability assay, MCF-7; assay type: cell-based, human; settings: for activity at 10 µM / activity at 50 µM / IC50: Homo sapiens, MCF7; for activity at 10 µM / activity at 50 µM / reduction of cell growth / IC50: 48 h; for activity at 10 µM / activity at 50 µM: read-out: Growth (%) MCF-7; for reduction of cell growth: in at least one of the cell lines (MCF-7, HT-29, HTB-54); for SI (selectivity index): IC50 (184B5)/IC50 (MCF-7)
Experimental: as §1, §2

184B5 cells = experiment: MTT cell viability assay, non-malignant 184B5; assay type: cell-based; settings: Homo sapiens, non-malignant breast cells, 48 h
Experimental: as §1, §2

H1299 cells = experiment: MTT cell viability assay, H1299; assay type: cell-based; settings: Homo sapiens, NCI-H1299, lung cancer cells, 48 h
Experimental: as §1, §2

T47D cells = experiment: MTT cell viability assay, T47D; assay type: cell-based; settings: Homo sapiens, breast cancer cells, 48 h
Experimental: as §1, §2

[2] = HTB-54, lung cancer cells, MTT, read-out: IC50 HTB-54
[3] = MCF-7 and T47D pooled, read-out: IC50 on breast cancer cells
[4] = breast cancer cells, MTT, read-out: IC50 MCF-7

Row | Structure (SMILES) | DPPH inhibition compared with Asc ([1]; 0.0006 mg/mL, all time-points) | DPPH radical scavenging [1] | activity at 10 µM (HT-29 cells) [%] | activity at 50 µM (HT-29 cells) [%] | activity at 10 µM (HTB-54 cells; HTB-54) [%] | activity at 50 µM (HTB-54 cells; HTB-54) [%] | activity at 10 µM (MCF-7 cells; 10 μM) [%] | activity at 50 µM (MCF-7 cells; 50 μM) [%] | IC50 (184B5 cells) [µM] | IC50 (H1299 cells) [µM] | IC50 (HTB-54 cells; [2]) [µM] | IC50 (T47D cells) [µM] | reduction of cell growth (MCF-7 cells; 10 μM) | reduction of cell growth (MCF-7 cells; 50 μM) | IC50 (MCF-7 cells; [3]) [µM] | IC50 (MCF-7 cells; [4]) [µM] | SI (selectivity index) (MCF-7 cells) | IC50 (HTB-54 cells; HTB-54 and H1299 pooled, read-out: IC50 on both lung cancer cells) [µM]
1 | COc1ccc(NC(=[Se])NC(=O)c2ccccc2)cc1 [Compound 1c] | greater inhibition compared with Asc | around 40% | 74.9 | 31.9 | 64.4 | 57.2 | 67.8 | 13.9 | – | – | – | – | – | – | – | – | – | –
2 | O=C(NC(=[Se])Nc1ccc(Cl)cc1)c1ccccc1 [Compound 1e] | – | around 40% | 77.9 | 33.8 | 82.3 | 57.2 | 74 | 13.9 | – | – | – | – | – | – | – | – | – | –
3 | O=C(NC(=[Se])Nc1ccc(C(F)(F)F)cc1)c1cccs1 [Compound 5d] | – | – | 60.6 | 29.3 | 76.2 | 4.3 | 46.7 | 23.5 | > 100 | 7.5 ± 0.2 | 14.6 ± 6.3 | 6.1 ± 0.4 | at least 45% | more than 85% | 4.2 to 8 | 4.2 ± 0.2 | – | –
4 | O=C(NC(=[Se])Nc1ccccc1)c1ccco1 [Compound 6a] | – | – | 72.6 | 35.5 | 72.8 | 0.7 | 39.9 | 5 | 52.2 ± 3.8 | 30.2 ± 7.2 | 26.1 ± 2.3 | 7.8 ± 1 | at least 45% | more than 85% | – | 3.5 ± 0.6 | 14.7 | –
5 | O=C(/C=C/c1ccccc1)NC(=[Se])Nc1ccccc1 [Compound 8a] | – | – | 98.6 | 34.2 | 65.2 | 49.7 | 75.8 | 15.3 | – | – | – | – | – | – | – | – | – | –
6 | O=C(C=Cc1ccccc1)NC(=[Se])Nc1ccc(C(F)(F)F)cc1 [Compound 8d] | – | – | 76 | 37.3 | 90 | 41.1 | 91.1 | 18.5 | – | – | – | – | – | – | – | – | – | –
7 | O=C(C=Cc1ccccc1)NC(=[Se])Nc1ccc(Cl)cc1 [Compound 8e] | – | – | 85.2 | 40.6 | 76.1 | 31.2 | 69.6 | 11.8 | – | – | – | – | – | – | – | – | – | –
8 | O=C(NC(=[Se])Nc1ccccc1)c1cc2ccccc2s1 [Compound 9a] | – | – | 62 | 28.6 | 66.9 | 3.3 | 64.9 | 43.4 | – | – | – | – | – | – | – | – | – | –
9 | Cc1ccc(NC(=[Se])NC(=O)c2cc3ccccc3s2)cc1 [Compound 9b] | – | – | 64.3 | 36.2 | 79 | 19 | 76.8 | 62.8 | – | – | – | – | – | – | – | – | – | –
10 | O=C(NC(=[Se])Nc1ccc(Cl)cc1)c1cc2ccccc2s1 [Compound 9e] | – | – | 45.4 | 33.5 | 32.9 | 9 | 54.8 | 44.4 | > 100 | 8.7 ± 1.4 | > 100 | 7.1 ± 0.6 | at least 45% | more than 85% | – | 9.8 ± 0.9 | >10.2 | –
11 | O=C(NC(=[Se])Nc1ccccc1)c1ccc2c(c1)OCO2 [Compound 10a] | – | – | 57.3 | 49.5 | 44 | 13.1 | 37.8 | 22.4 | > 100 | 11.2 ± 0.8 | > 100 | 8 ± 1 | at least 45% | more than 85% | 4.2 to 8 | 4.4 ± 1 | >22.9 | –
12 | COc1ccc(NC(=[Se])NC(=O)c2ccc3c(c2)OCO3)cc1 [Compound 10c] | – | – | 55.7 | 35.5 | 78.2 | 5.1 | 52.7 | 15.6 | 53.8 ± 10.5 | 7.3 ± 0.2 | 5.2 ± 4 | 12.9 ± 1.5 | at least 45% | more than 85% | – | 8.5 ± 0.6 | 6.3 | 1.5 to 7.3
13 | O=C(NC(=[Se])Nc1ccc(C(F)(F)F)cc1)c1ccc2c(c1)OCO2 [Compound 10d] | – | – | 66.5 | 13.9 | 79.6 | 5.1 | 60.6 | 8.4 | > 100 | 5.7 ± 0.1 | 23.4 ± 3.2 | 11.8 ± 1.9 | – | – | – | 7.9 ± 0.7 | >12.7 | –
14 | O=C(NC(=[Se])Nc1ccc(Cl)cc1)c1ccc2c(c1)OCO2 [Compound 10e] | – | – | 54.4 | 21.4 | 45.5 | 6.5 | 55.6 | 16.9 | 73.1 ± 5.2 | 48.6 ± 0.9 | 2.9 ± 3.2 | 17.4 ± 3.1 | at least 45% | more than 85% | – | 11.7 ± 1.5 | 6.2 | –
